Test results taken from patent US20260232767A1, “INTERLEUKIN-23 RECEPTOR ANTAGONIST PEPTIDES FOR USE IN THE TREATMENT OF PSORIASIS” (Janssen Pharmaceutica NV, priority 2023, published 2026).
Like-named read-outs stand apart in the source and are kept apart here.

Experiment: Plasma concentrations (PK), Example 1
Type: in vivo, human
Conditions: for level at 672 h / level at 1344 h / level at 2016 h / level at 2688 h: 100 mg; for level at 672 h: Week 4; for level at 1344 h: Week 8
Procedure: For QD dosing, peak concentration was defined as any PK sample taken between 0.25 to <6 hours after the last morning dose and trough concentration was at least 20 hours after the last morning dose. For BID dosing, peak concentration was defined as any PK sample taken between 0.25 to <4 hours after the last dose and trough concentration was at least 8 hours after the last dose.

[1] = human, plasma, oral, 100 mg BID, Peak, read-out: Plasma concentration, Mean
[2] = human, plasma, oral, 100 mg BID, Peak, read-out: Plasma concentration, Median
[3] = human, plasma, oral, 100 mg QD, Intermediate, read-out: Plasma concentration, Geometric Mean
[4] = human, plasma, oral, 100 mg QD, Peak, read-out: Plasma concentration, Geometric Mean
[5] = human, plasma, oral, 100 mg QD, Peak, read-out: Plasma concentration, Mean
[6] = human, plasma, oral, 100 mg QD, Peak, read-out: Plasma concentration, Median

CC(=O)NCCCC[C@@H]1NC(=O)[C@H](Cc2c[nH]c3c(C)cccc23)NC(=O)[C@H]([C@@H](C)O)NC(=O)[C@H](CC(N)=O)NC(=O)[C@@H](NC(C)=O)C(C)(C)SSC(C)(C)[C@@H](C(=O)N[C@@H](Cc2ccc(OCCN)cc2)C(=O)N[C@@H](Cc2ccc3ccccc3c2)C(=O)NC2(C(=O)N[C@@H](CCC(=O)O)C(=O)N[C@@H](CC(N)=O)C(=O)N[C@@H](Cc3cccnc3)C(=O)N(C)CC(N)=O)CCOCC2)NC1=O [IL-23 receptor antagonist peptide, Ac-[Pen]*-N-T-[W(7-Me)]-[Lys(Ac)]-[Pen]*-Phe[4-(2-aminoethoxy)]-[2-Nal]-[THP]-E-N-[3-Pal]-Sarc-NH2 (*[Pen]-[Pen]* formdisulfidebond)]
level at 672 h [1]: 2.05 ng/mL | level at 672 h [2]: 1.84 ng/mL | level at 1344 h (human, plasma, oral, 100 mg BID, Intermediate, read-out: Plasma concentration, Geometric Mean): 0.675 ng/mL | level at 1344 h (human, plasma, oral, 100 mg BID, Intermediate, read-out: Plasma concentration, Mean): 1.04 ng/mL | level at 1344 h (human, plasma, oral, 100 mg BID, Intermediate, read-out: Plasma concentration, Median): 0.84 ng/mL | level at 1344 h (human, plasma, oral, 100 mg BID, Peak, read-out: Plasma concentration, Geometric Mean): 1.86 ng/mL | level at 1344 h [1]: 3.55 ng/mL | level at 1344 h [2]: 1.44 ng/mL | level at 1344 h (human, plasma, oral, 100 mg BID, Trough, read-out: Plasma concentration, Geometric Mean): 0.664 ng/mL | level at 1344 h (human, plasma, oral, 100 mg BID, Trough, read-out: Plasma concentration, Mean): 0.961 ng/mL | level at 1344 h (human, plasma, oral, 100 mg BID, Trough, read-out: Plasma concentration, Median): 0.744 ng/mL | level at 2016 h (human, plasma, oral, 100 mg BID, Week 12, Trough, read-out: Plasma concentration, Mean): 1.1 ng/mL | level at 672 h [3]: 0.683 ng/mL | level at 672 h [4]: 0.968 ng/mL | level at 672 h [5]: 1.31 ng/mL | level at 672 h [6]: 1.34 ng/mL | level at 1344 h [3]: 0.235 ng/mL | level at 1344 h (human, plasma, oral, 100 mg QD, Intermediate, read-out: Plasma concentration, Mean): 0.235 ng/mL | level at 1344 h (human, plasma, oral, 100 mg QD, Intermediate, read-out: Plasma concentration, Median): 0.235 ng/mL | level at 1344 h [4]: 0.892 ng/mL | level at 1344 h [5]: 1.15 ng/mL | level at 1344 h [6]: 0.873 ng/mL | level at 1344 h (human, plasma, oral, 100 mg QD, Trough, read-out: Plasma concentration, Geometric Mean): 0.175 ng/mL | level at 1344 h (human, plasma, oral, 100 mg QD, Trough, read-out: Plasma concentration, Mean): 0.229 ng/mL | level at 1344 h (human, plasma, oral, 100 mg QD, Trough, read-out: Plasma concentration, Median): 0.149 ng/mL | level at 2016 h (human, plasma, oral, 100 mg QD, Week 12, Trough, read-out: Plasma concentration, Mean): 0.355 ng/mL | level at 2016 h (human, plasma, oral, weight >90 kg, 100 mg BID, Week 12, Intermediate, read-out: Plasma concentration, Geometric Mean): 0.601 ng/mL | level at 2016 h (human, plasma, oral, weight >90 kg, 100 mg BID, Week 12, Peak, read-out: Plasma concentration, Geometric Mean): 2.13 ng/mL | level at 2016 h (human, plasma, oral, weight >90 kg, 100 mg BID, Week 12, Peak, read-out: Plasma concentration, Mean): 6.41 ng/mL | level at 2016 h (human, plasma, oral, weight >90 kg, 100 mg BID, Week 12, Peak, read-out: Plasma concentration, Median): 1.29 ng/mL | level at 2688 h (human, plasma, oral, weight >90 kg, 100 mg BID, Week 16, Intermediate, read-out: Plasma concentration, Mean): 0.724 ng/mL | level at 2688 h (human, plasma, oral, weight >90 kg, 100 mg BID, Week 16, Trough, read-out: Plasma concentration, Geometric Mean): 0.522 ng/mL | level at 2688 h (human, plasma, oral, weight >90 kg, 100 mg BID, Week 16, Trough, read-out: Plasma concentration, Mean): 0.755 ng/mL | level at 2688 h (human, plasma, oral, weight >90 kg, 100 mg BID, Week 16, Trough, read-out: Plasma concentration, Median): 0.428 ng/mL | level at 2016 h (human, plasma, oral, weight >90 kg, 100 mg QD, Week 12, Intermediate, read-out: Plasma concentration, Geometric Mean): 0.75 ng/mL | level at 2016 h (human, plasma, oral, weight >90 kg, 100 mg QD, Week 12, Peak, read-out: Plasma concentration, Geometric Mean): 1.04 ng/mL | level at 2016 h (human, plasma, oral, weight >90 kg, 100 mg QD, Week 12, Peak, read-out: Plasma concentration, Mean): 1.04 ng/mL | level at 2016 h (human, plasma, oral, weight >90 kg, 100 mg QD, Week 12, Peak, read-out: Plasma concentration, Median): 1.09 ng/mL | level at 2688 h (human, plasma, oral, weight >90 kg, 100 mg QD, Week 16, Intermediate, read-out: Plasma concentration, Mean): 0.378 ng/mL | level at 2688 h (human, plasma, oral, weight >90 kg, 100 mg QD, Week 16, Trough, read-out: Plasma concentration, Geometric Mean): 0.102 ng/mL | level at 2688 h (human, plasma, oral, weight >90 kg, 100 mg QD, Week 16, Trough, read-out: Plasma concentration, Mean): 0.11 ng/mL | level at 2688 h (human, plasma, oral, weight >90 kg, 100 mg QD, Week 16, Trough, read-out: Plasma concentration, Median): 0.129 ng/mL | half-life (human, plasma, oral, read-out: Terminal elimination half-life): 9 to 12 h | Attainment of steady state conditions (oral daily dosing): ≤ 1 Week
